Patent publication US6413998B1, “Compositions and methods for treating bone deficit conditions” (Osteoscreen, Inc., priority 1995, dated 2002)

Legend:
ICR Swiss white mice = experiment: In vivo assay of effects of compounds on murine calvarial bone growth; design: species or system mouse; settings: compared to vehicle control; subcutaneous injection over right calvaria, day 14
Procedure: Male ICR Swiss white mice, aged 4-6 weeks and weighing 13-26 gm, are employed, using 4-5 mice per group. The calvarial bone growth assay is performed as described in PCT application WO 95/24211, incorporated by reference. Briefly, the test compound or appropriate control vehicle is injected into the subcutaneous tissue over the right calvaria of normal mice. Typically, the control vehicle is the vehicle in which the compound was solubilzed, and is PBS containing 5% DMSO or is PBS containing Tween (2 μl/10 ml). The animals are sacrificed on day 14 and bone growth measured by histomorphometry. Bone samples for quantitation are cleaned from adjacent tissues and fixed in 10% buffered formalin for 24-48 hours, decalcified in 14% EDTA for 1-3 weeks, processed through graded alcohols, and embedded in paraffin wax. Three to five μm sections of the calvaria are prepared, and representative sections are selected for histomorphometric assessment of the effects on bone formation and bone resorption. Sections are measured by using a camera lucida attachment to trace directly the microscopic image onto a digitizing plate. Bone changes are measured on sections cut 200 μm apart, over 4 adjacent 1×1 mm fields on both the injected and noninjected sides of the calvaria. […]

TMC-23 cells = experiment: Alkaline phosphatase (ALP) activity in chondrogenic cell line TMC-23; type: cell-based, mouse; settings: day 2, 10^-9 M, compared to vehicle control
Procedure: For measurement of alkaline phosphatase (ALP) activity, the technique of LF Bonewald et al. J Biol Chem (1992) 267:8943-49, was employed. Briefly, TMC-23 cells were plated in 96 well microtiter plates in DMEM containing 10% FCS at 4×10^3 cells/well. Two days after plating, the cells were confluent and the medium was replaced with fresh medium containing 10% FCS and different concentrations of compounds or recombinant BMP-2. After an additional 2 or 5 days incubation, the plates were washed twice with PBS, and then lysing solution (0.05% Triton X-100) was added (100 μl/well). The cells were lysed by three freeze-thaw cycles of −70° C. (30 min), followed by 37° C. (30 min with shaking). Twenty microliters of cell lysates were assayed with 80 μl of 5 mM p-nitrophenol phosphate in 1.5 M 2-amino-2-methyl-propanol buffer, pH 10.3 (Sigma ALP kit, Sigma Chemical Co., St. Louis, Mo.) for 10 min at 37° C. The reaction was stopped by the addition of 100 μl of 0.5 M NaOH. The spectrophotometric absorbance at 405 nm was compared to that of p-nitrophenol standards to estimate ALP activity in the samples. The protein content of the cell lysates was determined by the Bio-Rad protein assay kit (Bio-Rad, Hercules, Calif.). Specific activity was calculated using these two parameters.

BMP2 promoter = experiment: BMP-2 promoter luciferase reporter high throughput screening in 2T3-BMP-2-LUC cells; type: cell-based, mouse; settings: at concentration of maximal activity, about 3 μM
Text: A rapid throughput screening test for compounds capable of stimulating expression of a reporter gene linked to a BMP promoter (a surrogate for the production of bone morphogenetic factors that are endogenously produced) is described in U.S. application Ser. No. 08/458,434, filed Jun. 2, 1995, the entire contents of which are incorporated herein by reference. This assay is also described as a portion of a study of immortalized murine osteoblasts (derived from a mouse expressing a transgene composed of a BMP2 promoter driving expression of T-antigen) in Ghosh-Choudhery, N. et al. Endocrinology (1996) 137:331-39. […]
Briefly, the assay utilizes cells transformed permanently or transiently with constructs in which the promoter of a bone morphogenetic protein, specifically BMP2 or BMP4, is coupled to a reporter gene, typically luciferase. These transformed cells are then evaluated for the production of the reporter gene product; compounds that activate the BMP promoter will drive production of the reporter protein, which can be readily assayed. […]
The treated cells were incubated for 24 hours at 37° C. and 5% CO2. […] Luminescence was measured on an automated 96-well luminometer, and was expressed as either picograms of luciferase activity per well or as picograms of luciferase activity per microgram of protein. […]

For c1ccc(N=NC2=NNc3ccccc3S2)cc1 [Compound 59-0008, 3-phenylazo-1H-4,1,2-benzothiadiazine], the “increase in width of new calvarial bone” value (ICR Swiss white mice) was 4 fold, the “increase of ALP levels” value (TMC-23 cells) was “approximately 3 fold” and the “response (luciferase luminescence)” value (BMP2 promoter) was “approximately 175 light emission units”.
